In patent US20110105436A1, “HETEROARYL COMPOUNDS, COMPOSITIONS, AND METHODS OF USE IN CANCER TREATMENT” (AUCKLAND UNISERVICES LIMITED, priority 2008, published 2011):

Experiments:
RCC4/VHL cells = assay: XTT assay, RCC4/VHL versus RCC4 cells (selectivity ratio); format: cell-based; settings: selectivity ratio, IC50 in RCC4/VHL cells/IC50 in RCC4 cells
Method: (§1) Cell Viability and XTT assays. For cell viability, 100,000 cells were plated in a 12-well plate. The following day, 1.25 μM STF-62247 was added in the presence or absence of 1 mM 3-MA for 24 hours at 37° C. Cells were trypsinized and counted by trypan blue exclusion. For XTT assays, 5000 RCC4 with and without VHL cells or 2,500 SN12C with and without VHL shRNA cells were plated in 96-well plates. The following day, vehicle (DMSO), STF-62247 or each of 19 analogs were added to media by serial dilution. Four days later, the media was aspirated and XTT solution containing 0.3 mg/ml of XTT (Sigma Chemical Co) in Phenol Red-free media, 20% FCS and 2.65 mg/ml N-methyl dibenzopyrazine methyl sulfate (PMS) was added to the cells and incubated at 37° C. for 1-2 hours. Metabolism of XTT was quantified by measuring the absorbance at 450 nm on a plate reader.
A. RCC4 and RCC4/VHL were treated with 1.25 μM of each 19 analogs for 20 hours and the presence of vacuoles was examined under light microscopy. B. Western blot for LC3 after treatment with each compound. Tubulin was used as loading control. Ratio is the relative from the IC50 in RCC4/VHL cells/IC50 in RCC4 cells. C. Acidic vesicle organelles (AVO) measured by FACS analysis in cells treated with 1.25 μM of STF-62247 or with compounds 21, 15, 25, 47, and 53 and stained with acridine orange.

RCC4 cells = assay: XTT assay in VHL-deficient RCC4 cells; format: cell-based; settings: Homo sapiens, 96 h, XTT assay, VHL-deficient RCC4 cells, four days
Method: as §1

melting point	SMILES	Ratio (RCC4/VHL cells; Table 2)	IC50 (RCC4 cells; Table 2)	Ratio (RCC4/VHL cells; Table 1)	IC50 (RCC4 cells; Table 1)
141 to 143 °C	Cc1cccc(Nc2nc(-c3ccnc(N4CCN(C)CC4)c3)cs2)c1 [Compound 198, N-(3-Methylphenyl)-4-[2-(4-methyl-1-piperazinyl)-4-pyridinyl]-1,3-thiazol-2-amine]	–	–	–	–
230 to 232 °C	COc1ccc(Nc2nc(-c3ccncc3)cs2)cc1O [Compound 51, 2-Methoxy-5-{[4-(4-pyridinyl)-1,3-thiazol-2-yl]amino}phenol]	–	–	–	–
190 to 191 °C	Cc1cccc(Nc2nc(-c3ccnc(N4CCOCC4)c3)cs2)c1 [Compound 197, N-(3-Methylphenyl)-4-[2-(4-morpholinyl)-4-pyridinyl]-1,3-thiazol-2-amine]	–	–	–	–
170 to 171 °C	Cc1cccc(Nc2nc(-c3ccncc3)c[nH]2)c1 [Compound 196, N-(3-Methylphenyl)-4-(4-pyridinyl)-1H-imidazol-2-amine]	–	–	–	–
–	C#Cc1cnccc1-c1csc(Nc2cccc(C)c2)n1 [Compound 184, 4-(3-Ethynyl-4-pyridinyl)-N-(3-methylphenyl)-1,3-thiazol-2-amine]	4.4	1.35 µM	–	–
–	COc1ccccc1Nc1nc(-c2ccncc2)cs1 [Compound 109, N-(2-Methoxyphenyl)-4-(4-pyridinyl)-1,3-thiazol-2-amine]	–	–	>1.2	33.4 µM
–	Cc1cccc(Nc2nc(-c3ccncc3)c(C(=O)N(C)C)s2)c1 [Compound 92, N,N-Dimethyl-2-[(3-methylphenyl)amino]-4-(4-pyridinyl)-1,3-thiazole-5-carboxamide]	–	–	>2.5	16 µM
–	Fc1ccc(Nc2nc(-c3ccncc3)cs2)cc1 [Compound 33, N-(4-Fluorophenyl)-4-(4-pyridinyl)-1,3-thiazol-2-amine]	–	–	>7	6 µM
–	c1ccc(Nc2nc(-c3ccncc3)cs2)cc1 [Compound 3, N-Phenyl-4-(4-pyridinyl)-1,3-thiazol-2-amine]	–	–	>10	7 µM
–	Cc1ccc(Nc2nc(-c3ccncc3)cs2)cc1O [Compound 49, 2-Methyl-5-{[4-(4-pyridinyl)-1,3-thiazol-2-yl]amino}phenol]	–	–	4.6	12 µM
–	CCc1cnccc1-c1csc(Nc2cccc(C)c2)n1 [Compound 185, 4-(3-Ethyl-4-pyridinyl)-N-(3-methylphenyl)-1,3-thiazol-2-amine]	2.8	6.2 µM	–	–
–	Clc1ccccc1Nc1nc(-c2ccncc2)cs1 [Compound 115, N-[2-Chlorophenyl]-4-(4-pyridinyl)-1,3-thiazol-2-amine]	–	–	>1.4	27.6 µM
–	O=P(O)(O)Oc1cccc(Nc2nc(-c3ccncc3)cs2)c1 [Compound 39, 3-{[4-(4-Pyridinyl)-1,3-thiazol-2-yl]amino}phenyl Dihydrogen Phosphate]	–	–	1.1	29 µM
148 to 150 °C	Cc1cccc(Nc2nc(-c3ccnc(N(C)C)c3)cs2)c1 [Compound 199, N,N-Dimethyl-4-{2-[(3-methylphenyl)amino]-1,3-thiazol-4-yl}-2-pyridinamine]	–	–	–	–
–	Cc1cccc(Nc2nc(-c3ccncc3)c(CN3CCOCC3)s2)c1 [Compound 86, N-(3-Methylphenyl)-5-(4-morpholinylmethyl)-4-(4-pyridinyl)-1,3-thiazol-2-amine]	–	–	4.8	2.5 µM
–	Cc1cccc(Nc2nc(-c3ccncc3)c(CCCN3CCOCC3)s2)c1 [Compound 82, N-(3-Methylphenyl)-5-[3-(4-morpholinyl)propyl]-4-(4-pyridinyl)-1,3-thiazol-2-amine]	–	–	1.6	5.8 µM
–	Oc1ccc(Nc2nc(-c3ccccn3)cs2)cc1 [Compound 69, 4-{[4-(2-Pyridinyl)-1,3-thiazol-2-yl]amino}phenol]	–	–	0.7	36 µM
–	COc1ccc(Nc2nc(-c3ccncc3)cs2)cc1OC [Compound 55, N-(3,4-Dimethoxyphenyl)-4-(4-pyridinyl)-1,3-thiazol-2-amine]	–	–	1.9	24 µM
–	Cc1ccc(Nc2nc(-c3ccncc3)cs2)cc1C [Compound 43, N-(3,4-Dimethylphenyl)-4-(4-pyridinyl)-1,3-thiazol-2-amine]	–	–	6.4	6.5 µM
–	Cc1cccc(Nc2nc(-c3ccncc3)c(C)s2)c1 [Compound 71, 5-Methyl-N-(3-methylphenyl)-4-(4-pyridinyl)-1,3-thiazol-2-amine]	–	–	>4	10 µM

melting point	SMILES	Ratio (RCC4/VHL cells; Table 2)	IC50 (RCC4 cells; Table 2)	Ratio (RCC4/VHL cells; Table 1)	IC50 (RCC4 cells; Table 1)
–	Clc1cccc(Nc2nc(-c3ccncc3)cs2)c1 [Compound 17, N-(3-Chlorophenyl)-4-(4-pyridinyl)-1,3-thiazol-2-amine]	–	–	5	3 µM
–	Oc1ccccc1Nc1nc(-c2ccncc2)cs1 [Compound 107, 2-{[4-(4-Pyridinyl)-1,3-thiazol-2-yl]amino}phenol]	–	–	>3.1	12.8 µM
–	CC(C)c1cccc(Nc2nc(-c3ccncc3)cs2)c1 [Compound 9, N-(3-Isopropylphenyl)-4-(4-pyridinyl)-1,3-thiazol-2-amine]	–	–	1.4	17 µM
–	Cc1cccc(Nc2nc(-c3ccncc3[N+](=O)[O-])cs2)c1 [Compound 181]	4.1	8.2 µM	–	–
–	COC(=O)/C=C/c1sc(Nc2cccc(C)c2)nc1-c1ccncc1 [Compound 78, Methyl (2E)-3-[2-[(3-Methylphenyl)amino]-4-(4-pyridinyl)-1,3-thiazol-5-yl]-2-propenoate]	–	–	2.8	2.5 µM
–	Cc1cccc(Nc2nc(-c3ccncc3)c(C(N)=O)s2)c1 [Compound 91, 2-[(3-Methylphenyl)amino]-4-(4-pyridinyl)-1,3-thiazole-5-carboxamide]	–	–	>2.0	19.2 µM
–	Clc1ccc(Nc2nc(-c3ccncc3)cs2)cc1Cl [Compound 61, N-(3,4-Dichlorophenyl)-4-(4-pyridinyl)-1,3-thiazol-2-amine]	–	–	>3	13.5 µM
–	CCN(CC)Cc1sc(Nc2cccc(C)c2)nc1-c1ccncc1 [Compound 84, 5-[(Diethylamino)methyl]-N-(3-methylphenyl)-4-(4-pyridinyl)-1,3-thiazol-2-amine]	–	–	1.4	13 µM
–	O=P(O)(O)Oc1ccc(Nc2nc(-c3ccncc3)cs2)cc1 [Compound 41, 4-{[4-(4-Pyridinyl)-1,3-thiazol-2-yl]amino}phenyl Dihydrogen Phosphate]	–	–	6.3	3 µM
–	COc1ccc(Nc2nc(-c3ccncc3)cs2)cc1 [Compound 27, N-(4-Methoxyphenyl)-4-(4-pyridinyl)-1,3-thiazol-2-amine]	–	–	3.6	14 µM
–	CCc1cccc(Nc2nc(-c3ccncc3)cs2)c1 [Compound 7, N-(3-Ethylphenyl)-4-(4-pyridinyl)-1,3-thiazol-2-amine]	–	–	9.6	2.5 µM
–	Fc1ccccc1Nc1nc(-c2ccncc2)cs1 [Compound 113, N-(2-Fluorophenyl)-4-(4-pyridinyl)-1,3-thiazol-2-amine]	–	–	>2.8	14.3 µM
–	CCN(c1cccc(C)c1)c1nc(-c2ccncc2)cs1 [Compound 96, N-Ethyl-N-(3-methylphenyl)-4-(4-pyridinyl)-1,3-thiazol-2-amine]	–	–	0.6	40 µM
–	Clc1ccc(Nc2nc(-c3ccncc3)cs2)cc1 [Compound 31, N-(4-Chlorophenyl)-4-(4-pyridinyl)-1,3-thiazol-2-amine]	–	–	>2	38 µM
–	Cc1cccc(Nc2nc(-c3ccncc3F)cs2)c1 [Compound 170, 4-(3-Fluoro-4-pyridinyl)-N-(3-methylphenyl)-1,3-thiazol-2-amine]	>20	2 µM	–	–
–	CN(C)CCOc1ccc(Nc2nc(-c3ccncc3)cs2)cc1 [Compound 29, N-{4-[2-(Dimethylamino)ethoxy]phenyl}-4-(4-pyridinyl)-1,3-thiazol-2-amine]	–	–	1.3	60 µM
–	Cc1cccc(Nc2nc(-c3ccnc(F)c3)cs2)c1 [Compound 149, 4-(2-Fluoro-4-pyridinyl)-N-(3-methylphenyl)-1,3-thiazol-2-amine]	>8.9	4.5 µM	–	–
–	c1cc(-c2csc(Nc3ccc4c(c3)CCC4)n2)ccn1 [Compound 47, N-(2,3-Dihydro-1H-inden-5-yl)-4-(4-pyridinyl)-1,3-thiazol-2-amine]	–	–	10	2 µM
–	Cc1cccc(Nc2nc(-c3ccnc(Br)c3)cs2)c1 [Compound 154, 4-(2-Bromo-4-pyridinyl)-N-(3-methylphenyl)-1,3-thiazol-2-amine]	>10	3.9 µM	–	–
–	Cc1cccc(Nc2nc(-c3ccncc3Br)cs2)c1 [Compound 178, 4-(3-Bromo-4-pyridinyl)-N-(3-methylphenyl)-1,3-thiazol-2-amine]	>10	3.9 µM	–	–
